Measurements published in patent publication US10344060B2 (priority 2013, dated 2019).

What was measured:
Test in all cases: cell-based
mouse Nav1.4 = mouse Nav1.4 (Mus musculus, UniProt Q9ER60); conditions: for IC50: PatchXpress, tonic block, mouse Nav1.4, read-out: PX mNav1.4 Tonic IC50; for mNav1.4/mNav1.7: ratio of PX tonic IC50, mouse Nav1.4 over mouse Nav1.7
mNav1.7 = mNav1.7 (Mus musculus, UniProt Q62205); conditions: for IC50: PatchXpress, tonic block, mouse Nav1.7, read-out: PX mNav1.7 Tonic IC50; for mNav1.7/hNav1.7: ratio of PX tonic IC50, mouse Nav1.7 over human Nav1.7
Sequence of mNav1.7 (Q62205 whole entry): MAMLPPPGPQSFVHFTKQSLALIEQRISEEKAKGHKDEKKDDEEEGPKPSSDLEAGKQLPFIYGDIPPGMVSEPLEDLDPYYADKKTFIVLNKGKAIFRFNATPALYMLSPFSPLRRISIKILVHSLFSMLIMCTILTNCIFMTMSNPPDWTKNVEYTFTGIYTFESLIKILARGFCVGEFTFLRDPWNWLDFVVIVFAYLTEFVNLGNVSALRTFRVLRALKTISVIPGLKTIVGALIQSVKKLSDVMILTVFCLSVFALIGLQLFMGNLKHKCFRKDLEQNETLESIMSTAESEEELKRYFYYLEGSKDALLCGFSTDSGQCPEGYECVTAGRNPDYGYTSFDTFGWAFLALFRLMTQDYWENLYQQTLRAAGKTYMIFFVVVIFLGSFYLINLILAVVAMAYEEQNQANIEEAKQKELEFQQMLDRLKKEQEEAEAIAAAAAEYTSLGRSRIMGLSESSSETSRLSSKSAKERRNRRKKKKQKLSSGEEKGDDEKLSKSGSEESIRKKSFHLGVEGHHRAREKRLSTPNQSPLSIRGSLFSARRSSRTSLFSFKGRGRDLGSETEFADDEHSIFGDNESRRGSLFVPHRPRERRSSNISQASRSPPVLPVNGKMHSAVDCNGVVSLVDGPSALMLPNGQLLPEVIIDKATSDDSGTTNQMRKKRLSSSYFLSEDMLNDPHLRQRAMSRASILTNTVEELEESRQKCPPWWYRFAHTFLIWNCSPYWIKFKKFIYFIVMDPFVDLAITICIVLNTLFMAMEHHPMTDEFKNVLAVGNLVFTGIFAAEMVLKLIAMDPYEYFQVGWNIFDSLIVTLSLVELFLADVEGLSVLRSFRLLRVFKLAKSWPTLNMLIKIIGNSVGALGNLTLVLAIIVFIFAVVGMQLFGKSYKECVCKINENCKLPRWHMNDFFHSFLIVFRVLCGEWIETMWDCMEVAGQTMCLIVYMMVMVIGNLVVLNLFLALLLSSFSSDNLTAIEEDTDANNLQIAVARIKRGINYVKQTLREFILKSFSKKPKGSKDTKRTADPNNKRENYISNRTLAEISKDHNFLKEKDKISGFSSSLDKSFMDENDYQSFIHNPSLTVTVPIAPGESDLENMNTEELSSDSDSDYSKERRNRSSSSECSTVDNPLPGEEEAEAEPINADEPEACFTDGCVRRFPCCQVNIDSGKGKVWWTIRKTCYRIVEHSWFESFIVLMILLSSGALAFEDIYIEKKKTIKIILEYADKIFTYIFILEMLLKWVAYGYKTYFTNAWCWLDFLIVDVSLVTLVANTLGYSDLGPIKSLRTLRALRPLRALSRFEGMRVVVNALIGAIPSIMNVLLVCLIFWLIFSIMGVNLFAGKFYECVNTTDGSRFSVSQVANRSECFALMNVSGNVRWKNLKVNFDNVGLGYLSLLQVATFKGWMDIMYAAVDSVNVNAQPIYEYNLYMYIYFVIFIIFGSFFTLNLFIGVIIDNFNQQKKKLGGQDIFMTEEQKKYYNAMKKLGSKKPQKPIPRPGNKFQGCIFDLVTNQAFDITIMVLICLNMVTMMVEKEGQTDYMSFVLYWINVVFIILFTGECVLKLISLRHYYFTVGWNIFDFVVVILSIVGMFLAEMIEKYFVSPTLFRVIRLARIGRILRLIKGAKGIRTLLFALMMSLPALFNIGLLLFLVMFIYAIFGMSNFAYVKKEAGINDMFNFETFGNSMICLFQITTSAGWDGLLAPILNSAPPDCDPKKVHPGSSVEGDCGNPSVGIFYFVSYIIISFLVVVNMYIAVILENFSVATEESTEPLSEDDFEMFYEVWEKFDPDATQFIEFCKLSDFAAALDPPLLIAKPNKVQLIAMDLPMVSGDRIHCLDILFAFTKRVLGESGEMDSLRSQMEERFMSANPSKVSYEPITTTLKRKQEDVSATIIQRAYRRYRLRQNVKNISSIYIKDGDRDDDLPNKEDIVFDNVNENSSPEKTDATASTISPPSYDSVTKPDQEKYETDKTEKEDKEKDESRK

rNav1.7 = rNav1.7 (Rattus norvegicus, UniProt O08562); conditions: for IC50: PatchXpress, tonic block, rat Nav1.7, read-out: PX rNav1.7 Tonic IC50; for rNav1.7/hNav1.7: ratio of PX tonic IC50, rat Nav1.7 over human Nav1.7
Sequence of rNav1.7 (O08562 whole entry): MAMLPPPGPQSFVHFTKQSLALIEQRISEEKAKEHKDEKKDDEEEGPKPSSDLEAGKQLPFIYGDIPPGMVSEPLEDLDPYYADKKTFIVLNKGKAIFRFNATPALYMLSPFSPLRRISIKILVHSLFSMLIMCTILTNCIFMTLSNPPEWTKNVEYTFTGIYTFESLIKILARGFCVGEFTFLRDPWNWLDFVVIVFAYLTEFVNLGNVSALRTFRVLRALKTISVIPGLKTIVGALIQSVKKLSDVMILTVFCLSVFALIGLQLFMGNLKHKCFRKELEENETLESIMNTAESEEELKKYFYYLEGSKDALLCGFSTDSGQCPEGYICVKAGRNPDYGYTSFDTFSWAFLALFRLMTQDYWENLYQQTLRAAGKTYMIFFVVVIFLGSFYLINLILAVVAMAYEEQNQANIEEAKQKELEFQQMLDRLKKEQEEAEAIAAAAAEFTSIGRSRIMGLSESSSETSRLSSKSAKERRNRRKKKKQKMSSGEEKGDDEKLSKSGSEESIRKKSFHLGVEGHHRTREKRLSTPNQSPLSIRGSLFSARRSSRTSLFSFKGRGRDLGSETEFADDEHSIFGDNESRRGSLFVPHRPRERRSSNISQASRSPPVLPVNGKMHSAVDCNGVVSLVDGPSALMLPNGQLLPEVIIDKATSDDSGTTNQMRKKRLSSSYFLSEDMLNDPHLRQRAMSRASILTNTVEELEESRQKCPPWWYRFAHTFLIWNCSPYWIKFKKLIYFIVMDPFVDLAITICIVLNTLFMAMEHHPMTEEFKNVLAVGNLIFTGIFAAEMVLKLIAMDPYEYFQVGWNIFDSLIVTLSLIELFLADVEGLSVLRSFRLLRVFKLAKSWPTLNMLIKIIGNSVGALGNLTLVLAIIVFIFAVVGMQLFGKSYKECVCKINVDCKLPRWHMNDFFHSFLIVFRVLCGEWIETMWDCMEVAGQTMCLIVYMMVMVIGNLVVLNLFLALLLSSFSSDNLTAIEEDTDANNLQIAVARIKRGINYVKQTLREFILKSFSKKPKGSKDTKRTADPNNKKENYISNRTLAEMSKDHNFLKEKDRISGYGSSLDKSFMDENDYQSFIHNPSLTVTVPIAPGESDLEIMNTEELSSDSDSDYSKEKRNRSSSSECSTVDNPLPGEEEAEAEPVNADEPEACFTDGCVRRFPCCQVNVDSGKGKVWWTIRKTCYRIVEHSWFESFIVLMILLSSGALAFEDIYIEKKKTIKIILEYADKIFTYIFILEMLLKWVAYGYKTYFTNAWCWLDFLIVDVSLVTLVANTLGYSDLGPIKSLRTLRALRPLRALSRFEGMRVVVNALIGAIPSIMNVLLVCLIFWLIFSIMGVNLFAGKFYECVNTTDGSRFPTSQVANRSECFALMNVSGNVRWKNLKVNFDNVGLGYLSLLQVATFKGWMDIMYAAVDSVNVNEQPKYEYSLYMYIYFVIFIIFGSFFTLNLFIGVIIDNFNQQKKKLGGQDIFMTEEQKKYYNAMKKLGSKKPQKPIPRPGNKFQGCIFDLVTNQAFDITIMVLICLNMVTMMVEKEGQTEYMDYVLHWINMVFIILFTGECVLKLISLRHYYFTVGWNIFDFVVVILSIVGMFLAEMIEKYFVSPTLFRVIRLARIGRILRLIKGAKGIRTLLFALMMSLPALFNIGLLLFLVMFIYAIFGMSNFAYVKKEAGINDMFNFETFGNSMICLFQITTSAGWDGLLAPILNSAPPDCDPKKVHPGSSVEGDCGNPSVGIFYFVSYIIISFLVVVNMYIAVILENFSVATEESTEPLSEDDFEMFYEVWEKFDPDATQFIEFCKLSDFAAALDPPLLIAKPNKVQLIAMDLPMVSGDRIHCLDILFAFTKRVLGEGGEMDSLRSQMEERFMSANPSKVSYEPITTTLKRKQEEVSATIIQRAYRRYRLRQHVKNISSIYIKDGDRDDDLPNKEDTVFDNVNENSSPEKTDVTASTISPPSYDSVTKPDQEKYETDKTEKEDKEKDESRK

hNav1.7 = hNav1.7 (Homo sapiens, UniProt Q15858); type: cell-based; conditions: PatchXpress, tonic block, human Nav1.7; read-out: PX hNav1.7 Tonic IC50

Row | Compound | IC50 (mouse Nav1.4) [nM] | mNav1.4/mNav1.7 (mouse Nav1.4) | IC50 (mNav1.7) [nM] | mNav1.7/hNav1.7 (mNav1.7) | IC50 (rNav1.7) [nM] | rNav1.7/hNav1.7 (rNav1.7) | IC50 (hNav1.7) [nM]
1 | C#CC[C@H](N)C(=O)N[C@@H](Cc1ccc(O)cc1)C(=O)N[C@H]1CSSC[C@@H]2NC(=O)[C@@H]3CSSC[C@@H](C(=O)N[C@@H](CCCNC(=N)N)C(=O)N[C@@H](CCCCN)C(=O)N[C@@H](CCC(=O)O)C(=O)N[C@H](C(N)=O)[C@@H](C)CC)NC(=O)[C@H](Cc4c[nH]c5ccccc45)NC(=O)[C@H](CC(C)C)NC(=O)[C@H](CCCCN)NC(=O)[C@H](CSSC[C@H](NC(=O)[C@H]([C@@H](C)O)NC(=O)[C@H](Cc4c[nH]c5ccccc45)NC(=O)[C@H](CCCC)NC(=O)[C@H](Cc4c[nH]c5ccccc45)NC(=O)[C@H](CCCCN)NC(=O)[C@H](CCC(N)=O)NC1=O)C(=O)N[C@@H](CC(=O)O)C(=O)N[C@@H](CO)C(=O)N[C@@H](CCC(=O)O)C(=O)N[C@@H](CCCNC(=N)N)C(=O)N[C@@H](C)C(=O)N3)NC(=O)[C@H](CCCNC(=N)N)NC(=O)[C@H](CC(C)C)NC(=O)CNC(=O)[C@H](CCC(=O)O)NC2=O [Pra-[Nle6; Glu12, 28]JzTx-V(1-29)] | 548 | 34 | 16.2 | 9.37 | 2.66 | 1.54 | 
2 | C#CC[C@@H]1NC(=O)[C@@H]2CSSC[C@H](NC(=O)[C@H](Cc3ccc(O)cc3)NC(=O)[C@@H](N)CC#N)C(=O)N[C@@H](CCC(N)=O)C(=O)N[C@@H](CCCCN)C(=O)N[C@@H](Cc3c[nH]c4ccccc34)C(=O)N[C@@H](CCCC)C(=O)N[C@@H](Cc3c[nH]c4ccccc34)C(=O)N[C@@H]([C@@H](C)O)C(=O)N[C@H]3CSSC[C@H](NC(=O)[C@H](CCCNC(=N)N)NC(=O)[C@H](CC(C)C)NC(=O)CNC1=O)C(=O)N[C@@H](CCCCN)C(=O)N[C@@H](CC(C)C)C(=O)N[C@@H](Cc1c[nH]c4ccccc14)C(=O)N[C@H](C(=O)N[C@@H](CCCNC(=N)N)C(=O)N[C@@H](CCCCN)C(=O)N[C@@H](CCC(=O)O)C(=O)N[C@H](C(N)=O)[C@@H](C)CC)CSSC[C@H](NC(=O)[C@H](C)NC(=O)[C@H](CCCNC(=N)N)NC(=O)[C@H](CCCCN)NC(=O)[C@H](CO)NC(=O)[C@H](CC(=O)O)NC3=O)C(=O)N2 [CyA-[Nle6, Pra17, Glu28]JzTx-V(1-29)] | 32.2 |  | 4.8 |  | 1.41 |  | 
3 | C#CC[C@H](N)C(=O)N[C@@H](CCC(=O)O)C(=O)N[C@H]1CSSC[C@@H]2NC(=O)[C@@H]3CSSC[C@@H](C(=O)N[C@@H](CCCNC(=N)N)C(=O)N[C@@H](CCCCN)C(=O)N[C@@H](CCC(=O)O)C(=O)N[C@H](C(N)=O)[C@@H](C)CC)NC(=O)[C@H](Cc4c[nH]c5ccccc45)NC(=O)[C@H](CC(C)C)NC(=O)[C@H](CCCCN)NC(=O)[C@H](CSSC[C@H](NC(=O)[C@H]([C@@H](C)O)NC(=O)[C@H](Cc4c[nH]c5ccccc45)NC(=O)[C@H](CCCC)NC(=O)[C@H](Cc4c[nH]c5ccccc45)NC(=O)[C@H](CCCCN)NC(=O)[C@H](CCC(N)=O)NC1=O)C(=O)N[C@@H](CC(=O)O)C(=O)N[C@@H](CO)C(=O)N[C@@H](CCCCN)C(=O)N[C@@H](CCCNC(=N)N)C(=O)N[C@@H](C)C(=O)N3)NC(=O)[C@H](CCCNC(=N)N)NC(=O)[C@H](CC(C)C)NC(=O)CNC(=O)[C@H](CCC(=O)O)NC2=O [Pra-[Glu1, 28; Nle6]JzTx-V(1-29)] | 259 | 27 | 9.48 | 8.41 | 1.38 | 1.22 | 
4 | C#CC[C@H](N)C(=O)NCCCC[C@@H]1NC(=O)[C@H](CCCNC(=N)N)NC(=O)[C@H](CCCCN)NC(=O)[C@H](CO)NC(=O)[C@H](CC(=O)O)NC(=O)[C@@H]2CSSC[C@@H]3NC(=O)[C@H](CCCNC(=N)N)NC(=O)[C@H](CC(C)C)NC(=O)CNC(=O)[C@H](CCC(=O)O)NC(=O)[C@H](CSSC[C@H](NC(=O)[C@H](Cc4ccc(O)cc4)NC(=O)[C@@H](N)CC#N)C(=O)N[C@@H](CCC(N)=O)C(=O)N[C@@H](CCCCN)C(=O)N[C@@H](Cc4c[nH]c5ccccc45)C(=O)N[C@@H](CCCC)C(=O)N[C@@H](Cc4c[nH]c5ccccc45)C(=O)N[C@@H]([C@@H](C)O)C(=O)N2)NC(=O)[C@H](CSSC[C@@H](C(=O)N[C@@H](CCCNC(=N)N)C(=O)N[C@@H](CCCCN)C(=O)N[C@@H](CCC(=O)O)C(=O)N[C@H](C(N)=O)[C@@H](C)CC)NC(=O)[C@H](Cc2c[nH]c4ccccc24)NC(=O)[C@H](CC(C)C)NC(=O)[C@H](CCCCN)NC3=O)NC1=O | 62.7 | 6.4 | 9.79 | 6.15 | 2.73 | 1.71 | 
5 | C#CC[C@H](N)C(=O)N[C@@H](Cc1ccc(O)cc1)C(=O)N[C@H]1CSSC[C@@H]2NC(=O)[C@@H]3CSSC[C@@H](C(=O)N[C@@H](CCCNC(=N)N)C(=O)N[C@@H](CCCCN)C(=O)N[C@H](C(=O)N[C@@H](Cc4c[nH]c5ccccc45)C(N)=O)[C@@H](C)CC)NC(=O)[C@H](Cc4c[nH]c5ccccc45)NC(=O)[C@H](CC(C)C)NC(=O)[C@H](CCCCN)NC(=O)[C@H](CSSC[C@H](NC(=O)[C@H]([C@@H](C)O)NC(=O)[C@H](Cc4c[nH]c5ccccc45)NC(=O)[C@H](CCCC)NC(=O)[C@H](Cc4c[nH]c5ccccc45)NC(=O)[C@H](CCCCN)NC(=O)[C@H](CCC(N)=O)NC1=O)C(=O)N[C@@H](CC(=O)O)C(=O)N[C@@H](CO)C(=O)N[C@@H](CCCCN)C(=O)N[C@@H](CCCNC(=N)N)C(=O)N[C@@H](C)C(=O)N3)NC(=O)[C@H](CCCNC(=N)N)NC(=O)[C@H](CC(C)C)NC(=O)CNC(=O)[C@H](CCC(=O)O)NC2=O [Pra-[Nle6; Trp29]JzTx-V(1-29)] | 9.67 | 0.91 | 10.7 | 2.23 |  |  | 
6 | CCCC[C@@H]1NC(=O)[C@H](Cc2c[nH]c3ccccc23)NC(=O)[C@H](CCCCN)NC(=O)[C@H](CCC(N)=O)NC(=O)[C@@H](NC(=O)[C@H](Cc2ccc(O)cc2)NC(=O)[C@@H](N)CC(C)C)CSSC[C@@H]2NC(=O)[C@@H]3CSSC[C@@H](C(=O)N[C@@H](CCCNC(=N)N)C(=O)N[C@@H](CCCCN)C(=O)N[C@H](C(=O)N[C@H](C(N)=O)[C@@H](C)CC)[C@@H](C)CC)NC(=O)[C@H](Cc4c[nH]c5ccccc45)NC(=O)[C@H](CC(C)C)NC(=O)[C@H](CCCCN)NC(=O)[C@H](CSSC[C@H](NC(=O)[C@H]([C@@H](C)O)NC(=O)[C@H](Cc4c[nH]c5ccccc45)NC1=O)C(=O)N[C@@H](CC(=O)O)C(=O)N[C@@H](CO)C(=O)N[C@@H](CCCCN)C(=O)N[C@@H](CCCNC(=N)N)C(=O)N[C@@H](C)C(=O)N3)NC(=O)[C@H](CCCNC(=N)N)NC(=O)[C@H](CC(C)C)NC(=O)CNC(=O)[C@H](CCC(=O)O)NC2=O [Leu-[Nle6]JzTx-V(1-29)] | 1.8 | 1.4 | 1.33 | 10.22 |  |  | 0.13
